Source: the kinase profiling compilation of Christmann-Franck et al. (2016)

Tests used:
Assay in all cases: radiometric filter-binding kinase assay
ABL1 (human) = ABL1 (human) (UniProt P00519)
BRSK1 (human) = BRSK1 (human) (UniProt Q8TDC3)
CAMKK2 (human) = CAMKK2 (human) (UniProt Q96RR4)
CSNK2A1 (human) = CSNK2A1 (human) (UniProt P68400)
DYRK1A (human) = DYRK1A (human) (UniProt Q13627)
EEF2K (human) = EEF2K (human) (UniProt O00418)
EPHA4 (human) = EPHA4 (human) (UniProt P54764)
EPHB2 (human) = EPHB2 (human) (UniProt P29323)
INSR (human) = INSR (human) (UniProt P06213)
INSRR (human) = INSRR (human) (UniProt P14616)
JAK2 JH1 JH2 (human) = JAK2 JH1 JH2 (human) (UniProt O60674)
MAPK14 (human) = MAPK14 (human) (UniProt Q16539)
MAPKAPK5 (human) = MAPKAPK5 (human) (UniProt Q8IW41)
MARK2 (human) = MARK2 (human) (UniProt Q7KZI7)
MINK1 (human) = MINK1 (human) (UniProt Q8N4C8)
MST4 (human) = MST4 (human) (UniProt Q9P289)
MYLK (human) = MYLK (human) (UniProt Q15746)
NTRK1 (human) = NTRK1 (human) (UniProt P04629)
[1] = test system: OXSR1 (human), O95747 [T185E]
PHKG1 (human) = PHKG1 (human) (UniProt Q16816)
PRKCZ (human) = PRKCZ (human) (UniProt Q05513)
PTK6 (human) = PTK6 (human) (UniProt Q13882)
[2] = test system: RPS6KB1 (human), P23443 [T412E]
SRPK1 (human) = SRPK1 (human) (UniProt Q96SB4)
[3] = biological target: STK11 CAB39 STRADA (human) (UniProt Q9Y376+Q7RTN6+Q15831)
STK33 (human) = STK33 (human) (UniProt Q9BYT3)
YES1 (human) = YES1 (human) (UniProt P07947)
ZAP70 (human) = ZAP70 (human) (UniProt P43403)

Chain of JAK2 JH1 JH2 (human) (O60674 whole entry, looked up): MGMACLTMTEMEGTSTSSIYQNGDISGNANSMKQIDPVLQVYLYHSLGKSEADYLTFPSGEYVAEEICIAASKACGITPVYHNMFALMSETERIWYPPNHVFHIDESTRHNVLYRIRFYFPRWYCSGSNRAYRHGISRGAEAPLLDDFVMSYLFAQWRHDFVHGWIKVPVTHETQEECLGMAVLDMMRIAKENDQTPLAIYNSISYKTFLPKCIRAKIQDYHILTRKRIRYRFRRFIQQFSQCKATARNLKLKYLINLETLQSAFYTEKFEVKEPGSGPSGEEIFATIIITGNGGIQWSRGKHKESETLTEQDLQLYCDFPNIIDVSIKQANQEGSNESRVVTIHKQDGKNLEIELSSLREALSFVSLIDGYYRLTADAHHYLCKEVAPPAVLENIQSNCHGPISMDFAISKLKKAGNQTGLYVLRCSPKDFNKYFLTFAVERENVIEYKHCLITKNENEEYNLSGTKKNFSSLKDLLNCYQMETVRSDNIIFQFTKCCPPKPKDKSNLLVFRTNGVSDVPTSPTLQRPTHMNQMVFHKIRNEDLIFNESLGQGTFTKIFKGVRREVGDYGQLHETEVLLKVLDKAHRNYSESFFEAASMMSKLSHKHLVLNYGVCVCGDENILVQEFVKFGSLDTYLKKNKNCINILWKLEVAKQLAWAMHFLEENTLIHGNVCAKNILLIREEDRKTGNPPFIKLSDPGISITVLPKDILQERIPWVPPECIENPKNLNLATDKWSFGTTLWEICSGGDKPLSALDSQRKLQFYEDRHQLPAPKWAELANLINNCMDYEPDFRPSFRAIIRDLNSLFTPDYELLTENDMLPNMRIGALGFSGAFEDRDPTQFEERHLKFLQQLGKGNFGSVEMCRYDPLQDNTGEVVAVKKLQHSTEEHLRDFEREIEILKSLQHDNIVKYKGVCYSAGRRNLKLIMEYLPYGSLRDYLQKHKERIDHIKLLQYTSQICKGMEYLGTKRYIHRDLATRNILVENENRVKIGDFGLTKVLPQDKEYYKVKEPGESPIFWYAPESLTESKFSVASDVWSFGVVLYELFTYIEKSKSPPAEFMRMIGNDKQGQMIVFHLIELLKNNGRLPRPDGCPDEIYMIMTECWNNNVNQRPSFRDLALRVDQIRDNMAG
Chain of YES1 (human) (P07947 whole entry, looked up): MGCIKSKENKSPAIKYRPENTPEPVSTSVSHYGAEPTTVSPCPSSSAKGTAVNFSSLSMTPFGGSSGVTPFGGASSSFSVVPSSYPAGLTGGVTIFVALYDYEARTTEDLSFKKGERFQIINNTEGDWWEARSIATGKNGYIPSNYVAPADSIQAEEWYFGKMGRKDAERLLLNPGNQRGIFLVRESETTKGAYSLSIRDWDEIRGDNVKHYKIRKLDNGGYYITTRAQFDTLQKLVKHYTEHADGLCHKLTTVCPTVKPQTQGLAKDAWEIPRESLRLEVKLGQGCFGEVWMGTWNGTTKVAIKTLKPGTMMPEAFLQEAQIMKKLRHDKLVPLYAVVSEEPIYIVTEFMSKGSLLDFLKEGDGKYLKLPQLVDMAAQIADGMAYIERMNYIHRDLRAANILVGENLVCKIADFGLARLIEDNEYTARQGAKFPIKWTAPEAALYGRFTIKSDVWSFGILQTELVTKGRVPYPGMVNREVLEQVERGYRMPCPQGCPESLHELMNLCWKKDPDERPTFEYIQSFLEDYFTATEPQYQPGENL
Chain of SRPK1 (human) (Q96SB4 whole entry, looked up): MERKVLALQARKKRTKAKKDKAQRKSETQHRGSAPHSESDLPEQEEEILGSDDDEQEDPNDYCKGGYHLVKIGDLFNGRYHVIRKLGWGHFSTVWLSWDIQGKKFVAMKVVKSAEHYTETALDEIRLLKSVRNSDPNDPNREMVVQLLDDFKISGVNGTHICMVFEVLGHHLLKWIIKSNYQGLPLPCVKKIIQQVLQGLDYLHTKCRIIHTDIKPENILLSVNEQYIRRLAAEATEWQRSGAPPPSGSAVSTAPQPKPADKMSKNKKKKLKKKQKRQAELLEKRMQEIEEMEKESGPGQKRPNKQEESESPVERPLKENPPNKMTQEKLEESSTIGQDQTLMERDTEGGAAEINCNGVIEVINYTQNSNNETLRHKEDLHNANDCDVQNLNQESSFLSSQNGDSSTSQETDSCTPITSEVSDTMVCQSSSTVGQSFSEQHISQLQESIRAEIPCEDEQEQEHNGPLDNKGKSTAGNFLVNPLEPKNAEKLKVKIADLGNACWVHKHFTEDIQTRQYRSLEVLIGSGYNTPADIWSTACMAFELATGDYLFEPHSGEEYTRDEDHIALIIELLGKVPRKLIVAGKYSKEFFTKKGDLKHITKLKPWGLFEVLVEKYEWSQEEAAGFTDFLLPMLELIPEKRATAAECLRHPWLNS
Chain of CAMKK2 (human) (Q96RR4 whole entry, looked up): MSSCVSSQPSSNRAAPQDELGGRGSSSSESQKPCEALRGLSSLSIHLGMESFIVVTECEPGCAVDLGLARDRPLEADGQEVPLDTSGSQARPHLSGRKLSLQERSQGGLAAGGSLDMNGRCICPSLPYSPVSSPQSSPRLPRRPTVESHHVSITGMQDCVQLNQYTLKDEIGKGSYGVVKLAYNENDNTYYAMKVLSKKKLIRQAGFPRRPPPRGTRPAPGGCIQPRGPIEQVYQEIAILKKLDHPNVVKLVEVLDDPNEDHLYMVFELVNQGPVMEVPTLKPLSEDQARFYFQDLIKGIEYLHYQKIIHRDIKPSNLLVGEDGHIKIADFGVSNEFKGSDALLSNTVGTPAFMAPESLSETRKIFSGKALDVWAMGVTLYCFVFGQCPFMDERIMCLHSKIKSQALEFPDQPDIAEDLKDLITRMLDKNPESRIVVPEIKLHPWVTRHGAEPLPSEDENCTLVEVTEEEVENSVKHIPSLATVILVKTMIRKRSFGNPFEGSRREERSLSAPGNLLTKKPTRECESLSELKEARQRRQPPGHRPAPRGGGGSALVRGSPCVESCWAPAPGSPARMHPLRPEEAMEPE
Chain of PRKCZ (human) (Q05513 whole entry, looked up): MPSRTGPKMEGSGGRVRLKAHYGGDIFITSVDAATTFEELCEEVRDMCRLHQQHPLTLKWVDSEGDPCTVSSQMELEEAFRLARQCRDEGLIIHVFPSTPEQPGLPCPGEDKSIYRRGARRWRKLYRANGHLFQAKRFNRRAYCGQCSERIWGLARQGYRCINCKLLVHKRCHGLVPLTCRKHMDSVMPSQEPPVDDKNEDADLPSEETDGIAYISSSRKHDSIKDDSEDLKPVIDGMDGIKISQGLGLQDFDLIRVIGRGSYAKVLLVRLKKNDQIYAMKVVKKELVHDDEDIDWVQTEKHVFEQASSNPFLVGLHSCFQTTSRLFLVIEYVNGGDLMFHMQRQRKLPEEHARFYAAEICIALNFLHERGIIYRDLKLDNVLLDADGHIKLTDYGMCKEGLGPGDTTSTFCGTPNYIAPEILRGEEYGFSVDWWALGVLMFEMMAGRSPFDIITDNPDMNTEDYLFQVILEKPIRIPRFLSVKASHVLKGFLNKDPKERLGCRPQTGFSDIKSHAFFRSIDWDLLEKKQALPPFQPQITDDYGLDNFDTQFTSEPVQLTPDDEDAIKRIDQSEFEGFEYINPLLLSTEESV
Chain of ABL1 (human) (P00519 whole entry, looked up): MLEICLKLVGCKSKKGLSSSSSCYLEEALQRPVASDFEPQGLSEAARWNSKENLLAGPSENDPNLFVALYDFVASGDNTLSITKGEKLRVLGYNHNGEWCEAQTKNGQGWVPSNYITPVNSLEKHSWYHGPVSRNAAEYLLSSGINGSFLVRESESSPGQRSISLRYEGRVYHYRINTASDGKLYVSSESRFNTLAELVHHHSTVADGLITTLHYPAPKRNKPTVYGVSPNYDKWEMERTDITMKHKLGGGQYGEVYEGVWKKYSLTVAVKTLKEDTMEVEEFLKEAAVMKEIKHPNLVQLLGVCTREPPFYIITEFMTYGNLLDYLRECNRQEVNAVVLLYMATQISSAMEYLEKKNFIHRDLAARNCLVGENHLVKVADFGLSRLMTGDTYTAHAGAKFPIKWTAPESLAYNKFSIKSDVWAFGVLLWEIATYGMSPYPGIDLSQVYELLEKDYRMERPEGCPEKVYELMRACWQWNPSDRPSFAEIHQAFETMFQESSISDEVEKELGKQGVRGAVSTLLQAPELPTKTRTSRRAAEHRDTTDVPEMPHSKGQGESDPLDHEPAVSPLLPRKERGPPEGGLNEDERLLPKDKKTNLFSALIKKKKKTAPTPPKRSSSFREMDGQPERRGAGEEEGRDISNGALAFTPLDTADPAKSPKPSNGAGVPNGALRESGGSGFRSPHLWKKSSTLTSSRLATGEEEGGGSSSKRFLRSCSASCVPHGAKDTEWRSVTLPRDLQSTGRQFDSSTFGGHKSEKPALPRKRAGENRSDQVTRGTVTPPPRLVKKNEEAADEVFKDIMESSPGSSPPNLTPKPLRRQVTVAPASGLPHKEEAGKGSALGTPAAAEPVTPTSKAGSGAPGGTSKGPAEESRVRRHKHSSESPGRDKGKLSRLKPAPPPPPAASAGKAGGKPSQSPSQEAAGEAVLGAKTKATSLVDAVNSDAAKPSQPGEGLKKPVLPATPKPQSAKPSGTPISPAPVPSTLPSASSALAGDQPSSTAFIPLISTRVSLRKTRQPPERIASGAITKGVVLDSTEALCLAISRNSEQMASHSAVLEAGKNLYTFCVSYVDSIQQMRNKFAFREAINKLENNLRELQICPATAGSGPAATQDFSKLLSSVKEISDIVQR
Chain of PHKG1 (human) (Q16816 whole entry, looked up): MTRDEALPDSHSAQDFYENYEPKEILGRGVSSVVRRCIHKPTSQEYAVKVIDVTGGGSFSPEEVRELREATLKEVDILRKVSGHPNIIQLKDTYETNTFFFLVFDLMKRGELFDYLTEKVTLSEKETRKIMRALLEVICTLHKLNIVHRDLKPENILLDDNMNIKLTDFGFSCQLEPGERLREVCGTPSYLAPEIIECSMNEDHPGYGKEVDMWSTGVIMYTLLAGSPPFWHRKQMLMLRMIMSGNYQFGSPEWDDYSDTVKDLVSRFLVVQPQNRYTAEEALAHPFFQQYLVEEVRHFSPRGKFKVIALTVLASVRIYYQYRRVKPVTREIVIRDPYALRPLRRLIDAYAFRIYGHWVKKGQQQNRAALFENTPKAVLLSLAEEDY

`CCN1CCN(Cc2ccc(NC(=O)c3ccc(C)c(Oc4ccnc5[nH]ccc45)c3)cc2C(F)(F)F)CC1` was tested, and the residual activity (ABL1 (human); compound 0.1 µM) was 51.4%, the residual activity (ABL1 (human); compound 1.0 µM) was 3.77% and the residual activity (ABL1 (human); compound 10.0 µM) was 0.874%. The residual activity (BRSK1 (human); compound 0.1 µM) was 101%, the residual activity (BRSK1 (human); compound 1.0 µM) was 96.2% and the residual activity (BRSK1 (human); compound 10.0 µM) was 109%. For the same molecule, the residual activity (CAMKK2 (human); compound 0.1 µM) was 98.3%, the residual activity (CAMKK2 (human); compound 1.0 µM) was 70.7% and the residual activity (CAMKK2 (human); compound 10.0 µM) was 20.7%. For the same molecule, the residual activity (CSNK2A1 (human); compound 0.1 µM) was 90.2%, the residual activity (CSNK2A1 (human); compound 1.0 µM) was 94.1% and the residual activity (CSNK2A1 (human); compound 10.0 µM) was 98.5%. It also gave a residual activity (DYRK1A (human); compound 0.1 µM) of 107%, a residual activity (DYRK1A (human); compound 1.0 µM) of 97.8% and a residual activity (DYRK1A (human); compound 10.0 µM) of 84.9%. For the same molecule, the residual activity (EEF2K (human); compound 0.1 µM) was 110%, the residual activity (EEF2K (human); compound 1.0 µM) was 102% and the residual activity (EEF2K (human); compound 10.0 µM) was 100%. The residual activity (EPHA4 (human); compound 0.1 µM) was 96.3%, the residual activity (EPHA4 (human); compound 1.0 µM) was 28.7% and the residual activity (EPHA4 (human); compound 10.0 µM) was 7.58%. For the same molecule, the residual activity (EPHB2 (human); compound 0.1 µM) was 88.5%, the residual activity (EPHB2 (human); compound 1.0 µM) was 23.4% and the residual activity (EPHB2 (human); compound 10.0 µM) was 3.11%. For the same molecule, the residual activity (INSR (human); compound 0.1 µM) was 86.1%, the residual activity (INSR (human); compound 1.0 µM) was 81.6% and the residual activity (INSR (human); compound 10.0 µM) was 18%. It also gave a residual activity (INSRR (human); compound 0.1 µM) of 112%, a residual activity (INSRR (human); compound 1.0 µM) of 91.3% and a residual activity (INSRR (human); compound 10.0 µM) of 46.1%. The residual activity (JAK2 JH1 JH2 (human); compound 0.1 µM) was 93.4%, the residual activity (JAK2 JH1 JH2 (human); compound 1.0 µM) was 92.4% and the residual activity (JAK2 JH1 JH2 (human); compound 10.0 µM) was 41.6%. The residual activity (MAPK14 (human); compound 0.1 µM) was 41%, the residual activity (MAPK14 (human); compound 1.0 µM) was 3.48% and the residual activity (MAPK14 (human); compound 10.0 µM) was 2.61%. It also gave a residual activity (MAPKAPK5 (human); compound 0.1 µM) of 105%, a residual activity (MAPKAPK5 (human); compound 1.0 µM) of 97.4% and a residual activity (MAPKAPK5 (human); compound 10.0 µM) of 92.2%. For the same molecule, the residual activity (MARK2 (human); compound 0.1 µM) was 92.7%, the residual activity (MARK2 (human); compound 1.0 µM) was 74.5% and the residual activity (MARK2 (human); compound 10.0 µM) was 85.5%. For the same molecule, the residual activity (MINK1 (human); compound 0.1 µM) was 75.7%, the residual activity (MINK1 (human); compound 1.0 µM) was 11.4% and the residual activity (MINK1 (human); compound 10.0 µM) was 4.56%. The residual activity (MST4 (human); compound 0.1 µM) was 95%, the residual activity (MST4 (human); compound 1.0 µM) was 78% and the residual activity (MST4 (human); compound 10.0 µM) was 32.1%. The residual activity (MYLK (human); compound 0.1 µM) was 109%, the residual activity (MYLK (human); compound 1.0 µM) was 89.4% and the residual activity (MYLK (human); compound 10.0 µM) was 76.7%. It also gave a residual activity (NTRK1 (human); compound 0.1 µM) of 111%, a residual activity (NTRK1 (human); compound 1.0 µM) of 77.7% and a residual activity (NTRK1 (human); compound 10.0 µM) of 43.4%. For the same molecule, the residual activity ([1]; compound 0.1 µM) was 54%, the residual activity ([1]; compound 10.0 µM) was 1.79% and the residual activity (PHKG1 (human); compound 0.1 µM) was 102%. The residual activity (PHKG1 (human); compound 1.0 µM) was 112%, the residual activity (PHKG1 (human); compound 10.0 µM) was 102% and the residual activity (PRKCZ (human); compound 0.1 µM) was 99.4%. It also gave a residual activity (PRKCZ (human); compound 1.0 µM) of 96%, a residual activity (PRKCZ (human); compound 10.0 µM) of 92.7% and a residual activity (PTK6 (human); compound 0.1 µM) of 101%. The residual activity (PTK6 (human); compound 1.0 µM) was 43.1%, the residual activity (PTK6 (human); compound 10.0 µM) was 6.76% and the residual activity ([2]; compound 0.1 µM) was 107%. For the same molecule, the residual activity ([2]; compound 1.0 µM) was 63.6%, the residual activity ([2]; compound 10.0 µM) was 12.9% and the residual activity (SRPK1 (human); compound 0.1 µM) was 102%. The residual activity (SRPK1 (human); compound 1.0 µM) was 97.1%, the residual activity (SRPK1 (human); compound 10.0 µM) was 73% and the residual activity ([3]; compound 0.1 µM) was 117%. For the same molecule, the residual activity ([3]; compound 1.0 µM) was 107%, the residual activity ([3]; compound 10.0 µM) was 129% and the residual activity (STK33 (human); compound 0.1 µM) was 106%. The residual activity (STK33 (human); compound 1.0 µM) was 96.7%, the residual activity (STK33 (human); compound 10.0 µM) was 79.6% and the residual activity (YES1 (human); compound 0.1 µM) was 52.9%. It also gave a residual activity (YES1 (human); compound 1.0 µM) of 9.77%, a residual activity (YES1 (human); compound 10.0 µM) of 10.6% and a residual activity (ZAP70 (human); compound 0.1 µM) of 92.4%. The residual activity (ZAP70 (human); compound 1.0 µM) was 89.5% and the residual activity (ZAP70 (human); compound 10.0 µM) was 59.9%.
